# Patent US20120035265A1, “COMPOSITIONS, METHODS, AND DEVICES FOR THE TREATMENT OF DYSMENORRHEA” (MediciNova, Inc., priority 2010, published 2012)
# Read-outs that look alike come from different tables or passages of the source.
# How the values were obtained:
# [1] = system: uterine muscles isolated from pregnant rabbits; experiment: Oxytocin-induced contractions of isolated uterine muscles of pregnant rabbits (organ bath); type: cell-based, rabbit
# Procedure: (§1) Uterine muscles of pregnant rabbits were isolated, and experiments were conducted based on organ-bath method. After specimens of uterine muscles were suspended and oxytocin (1 mU/mL)-induced contractions was stabilized, the test substance, control substance or positive control substance was administered every 10 min, while doses were increased gradually. Efficacy of drugs was evaluated by comparing the sum of uterine contraction for 10 min before and after administration of drugs, defining the former as 100%.
# [2] = system: uterine muscles isolated from pregnant rabbits; experiment: Spontaneous contractions of isolated uterine muscles of pregnant rabbits (organ bath); type: cell-based, rabbit
# Procedure: as §1, with “spontaneous” for “oxytocin (1 mU/mL)-induced”
# [3] = system: women with primary dysmenorrhea; experiment: Myometrial activity, uterine blood flow and lower abdominal pain in women with primary dysmenorrhea (intravenous MN-221); type: in vivo, human
# Procedure: Myometrial activity and uterine blood flow is recorded in a group of women, aged 16 to 39 years. All have regular cycles of 25 to 32 days. They suffer regularly from menstrual pain. All are so disabled by the condition that they have to abstain from work for one to three days a month, even if they use non-narcotic analgesics. At least during the first menstrual day, all have a continuous lower abdominal pain, which varies in intensity; most of them also complain of symptoms such as nausea and vomiting. The symptoms during the recordings conform to those experienced during previous menstruations.
# In the menstrual cycle preceding the investigation, all women have biphasic basal body temperature recordings, and plasma oestradiol and progesterone concentrations which are higher in the middle of the luteal phase than on the first menstrual day. Recordings are made; each begin within 24 hours of the onset of menstruation lasting for more than three hours.
# Myometrial activity is recorded as changes in intrauterine pressure by a microtransducer catheter. The transducer is connected to an amplifier and a potentiometer recorder. Uterine blood flow is recorded by a technique based on measuring thermodilution from a heated thermistor to blood flow in the surrounding tissue. The thermistor is placed in contact with the endometrium of the fundus and, consequently, the recordings mainly reflect the blood flow at that site. The thermistor and the pressure transducer are inserted through the cervical canal into the uterus. The receptors are kept in position by the rigidity of the transducer catheter and by use of sterile paste around the catheters in the vagina.
# The patients are asked to report all symptoms during recordings, including changes in character and intensity of the menstrual pain. MN-221 is given as a single bolus intravenous injection of 0.30 mg, 0.60 mg, or 0.90 mg. Before and after the administration of MN-221, pulse rate and arterial blood pressure (measured by auscultation) are registered at 5-minute intervals.
# [4] = system: uterine activity of anesthetized pregnant rats; experiment: Uterine motility of anesthetized pregnant rats (balloon method); type: in vivo, rat
# Procedure: Rats were anesthetized with urethane, and experiments were conducted based on balloon method. Uterine activity and mean blood pressure of dam were led to a pressure amplifier via a pressure transducer. As for heart rate, pulse waves were led to tachometer. Recti-graphs were used for recording. The test substance, control substance, or positive control substance was administered intravenously and cumulatively every 15 minutes, while doses were increased gradually.
# [5] = system: uterine muscle isolated from pregnant rats; experiment: Interaction of MN-221 and β-adrenoceptor antagonists on spontaneous contraction of uterine muscle isolated from pregnant rats (Schild regression); type: cell-based, rat; conditions: Rattus norvegicus
# Procedure: The experimental operation of this study was as reported by T. Kawarabayashi et al.^4. After each SD-strain rat on Day 21 of pregnancy was exsanguinated to death, the uterus was isolated to prepare 8 myometrial samples (about 4 mm×10 mm) in the direction of the longitudinal muscle, with the adhesion to the placenta being avoided. Each myometrial sample was suspended with a load of about 1.0 g in an organ bath containing 10 mL of the Locke-Ringer solution at 37° C. […] After the suspended samples became stable for the amplitude and frequency of spontaneous contraction, each antagonist or distilled water was added to the bath to pretreat them for about 15 minutes. […] The contractile force of each sample was outputted through a force displacement transducer to a strain pressure amplifier and recorded with a rectigraph.
# Any variable point (peak) with amplitude (tension) of 0.2 g or lower was excluded from analysis. Samples meeting any of the following criteria were rejected or removed from analysis.
# Microsoft® Excel 2000 (Microsoft Corp.) was used for summing up or calculating data and preparing figures and tables. […] This EC50 value was used to calculate the concentration ratio (CR) of EC50 when an antagonist was added (for each sample) to that when no antagonist was added (mean value of the whole control group) and the logarithmic value of CR-1 (log [CR-1]).
# Then, the added concentration of the antagonist was plotted on the X axis (logarithmic value) and log(CR-1) on the Y axis (Schild plot) to calculate the value of the X-axis intercept (pA2) and slope of the line using linear approximation (Schild regression^5). The slope was statistically compared with a slope of 1 (paired t-test; a probability level of less than 5% was considered significant). […] The mean and standard error were calculated for each data point obtained and indicated to two decimal places (or in 3 significant digit).
# [6] = pregnant rabbit uterine muscles
# [7] = single bolus intravenous injection of 0.30 mg, 0.60 mg, or 0.90 mg
# [8] = inhibition of uterine motility, anesthetized pregnant rats
smiles,measurement,setting,value
"CN(C)C(=O)COc1ccc2c(c1)C[C@@H](NC[C@H](O)c1ccc(O)c(CCO)c1)CC2 [MN-221, (−)-bis(2-{[(2S)-2-({(2R)-2-hydroxy-2-[4-hydroxy-3-(2-hydroxyethyl)phenyl]ethyl}amino)-1,2,3,4-tetrahydronaphthalen-7-yl]oxy}-N,N-dimethyl-acetamide) monosulfate]",EC50,"[1]; Oryctolagus cuniculus, oxytocin (1 mU/mL)-induced contractions, pregnant rabbit uterine muscles, read-out: pD2 values (converted)",2.51 nM
same,inhibitory effect against oxytocin-induced contractions of isolated uterine muscles,[1]; oxytocin (1 mU/mL),demonstrated inhibitory effect
same,"inhibitory effect against oxytocin-induced contractions of uterine muscles, comparison",[1]; [6],"clearly stronger than that of HSR-81, ritodrine and terbutaline"
same,EC50,"[2]; Oryctolagus cuniculus, spontaneous contractions, pregnant rabbit uterine muscles, read-out: pD2 values (converted)",1.91 nM
same,inhibitory effect against oxytocin-induced contractions of isolated uterine muscles,[2]; as worded in Example 6 (spontaneous contraction study),demonstrated inhibitory effect
same,"inhibitory effect against spontaneous contractions of uterine muscles, comparison",[2]; [6],"clearly stronger than that of HSR-81, ritodrine and terbutaline"
same,pain relief,[3]; after injection or infusion,pain relief within one minute after injection
same,"increase in heart rate, blood pressure, palpitations, tremors, and/or flushes","[3]; intravenous, all subjects","substantially no increase in heart rate, blood pressure, palpitations, tremors, and/or flushes"
same,duration of effect,[3]; single bolus intravenous injection,lasts for few hours
same,local uterine blood flow,[3]; [7],generally increases
same,myometrial activity,[3]; [7],decreases the myometrial activity
same,inhibition of uterine motility,"[4]; anesthetized pregnant rats, intravenous cumulative dosing",inhibited uterine motility dose-dependently
same,potency relative to HSR-81,[4]; [8],approximately 4 times
same,potency relative to ritodrine,[4]; [8],approximately 400 times
same,potency relative to terbutaline,[4]; [8],approximately 5.5 times
same,ED30 values,"[4]; uterine motility, intravenous cumulative dosing every 15 minutes, urethane-anesthetized pregnant rats",0.13 µg/kg/min
same,EC50,"[5]; MN-221, control group (treated with distilled water), read-out: EC50",0.843 ± 0.221 nM
same,EC50,"[5]; MN-221, control group (treated with distilled water), read-out: pD2 (converted)",0.676 nM
same,EC50,"[5]; MN-221 after pretreatment with CGP 20712A 1 × 10^−8 mol/L, read-out: EC50",0.868 ± 0.15 nM
same,EC50,"[5]; MN-221 after pretreatment with CGP 20712A 1 × 10^−8 mol/L, read-out: pD2 (converted)",0.692 nM
same,EC50,"[5]; MN-221 after pretreatment with CGP 20712A 1 × 10^−9 mol/L, read-out: EC50",1.25 ± 0.148 nM
same,EC50,"[5]; MN-221 after pretreatment with CGP 20712A 1 × 10^−9 mol/L, read-out: pD2 (converted)",1.15 nM
same,EC50,"[5]; MN-221 after pretreatment with CGP 20712A 3 × 10^−9 mol/L, read-out: EC50",1.05 ± 0.278 nM
same,EC50,"[5]; MN-221 after pretreatment with CGP 20712A 3 × 10^−9 mol/L, read-out: pD2 (converted)",0.692 nM
same,EC50,"[5]; MN-221 after pretreatment with ICI 118,551 1 × 10^−8 mol/L, read-out: EC50",23.1 ± 6.39 nM
same,EC50,"[5]; MN-221 after pretreatment with ICI 118,551 1 × 10^−8 mol/L, read-out: pD2 (converted)",16.6 nM
same,EC50,"[5]; MN-221 after pretreatment with ICI 118,551 3 × 10^−8 mol/L, read-out: EC50",50.9 ± 12.7 nM
same,EC50,"[5]; MN-221 after pretreatment with ICI 118,551 3 × 10^−8 mol/L, read-out: pD2 (converted)",28.8 nM
same,EC50,"[5]; MN-221 after pretreatment with ICI 118,551 3 × 10^−9 mol/L, read-out: EC50",4.6 ± 1.26 nM
same,EC50,"[5]; MN-221 after pretreatment with ICI 118,551 3 × 10^−9 mol/L, read-out: pD2 (converted)",2.95 nM
same,EC50,"[5]; MN-221 after pretreatment with SR 59230A 1 × 10^−8 mol/L, read-out: EC50",1.54 ± 1.08 nM
same,EC50,"[5]; MN-221 after pretreatment with SR 59230A 1 × 10^−8 mol/L, read-out: pD2 (converted)",0.447 nM
same,EC50,"[5]; MN-221 after pretreatment with SR 59230A 3 × 10^−8 mol/L, read-out: EC50",1.79 ± 0.499 nM
same,EC50,"[5]; MN-221 after pretreatment with SR 59230A 3 × 10^−8 mol/L, read-out: pD2 (converted)",1.07 nM
same,EC50,"[5]; MN-221 after pretreatment with SR 59230A 3 × 10^−9 mol/L, read-out: EC50",1.24 ± 0.338 nM
same,EC50,"[5]; MN-221 after pretreatment with SR 59230A 3 × 10^−9 mol/L, read-out: pD2 (converted)",0.955 nM
